Common to all, as to format: biochemical
The target of experiment [1] is T1, PI3K beta (Homo sapiens, UniProt P42338).
T1 construct: for the full-length p110-b subunit are generated and fused by overlapping PCR; His tag (C); made in house; host or cells: baculovirus BV949; Tn5 (Trichoplusia ni) or TiniPro insect cells
Nature of the experiment: PI3K beta kinase assay (Kinase-Glo luminescence). In outline: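 Kinase-Glo luminescence read out ATP left after a 60-min room-temperature reaction, started with ATP (1 μM final) on 25 nM His-tagged p85 iSH2–p110β (BV949) plus 10 μg/mL PI substrate in pH 7.5 Tris buffer. Percent inhibition at eight concentrations was fitted to a four-parameter logistic model for IC50.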

In experiment [2] the target is T2, PI3K alfa (Homo sapiens, UniProt P42336).
T2 construct: His tag (C); made in house; host or cells: baculovirus BV1075; Tn5 (Trichoplusia ni) or TiniPro insect cells
Nature of the experiment: PI3K alpha kinase assay (Kinase-Glo luminescence). In outline: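 IC50 values come from a four-parameter logistic fit of percent inhibition at eight concentrations, typically 10 to 0.003 μM. Recombinant PI3Kα at 10 nM turned over 1 μM ATP with 10 μg/mL PI for 60 min at room temperature, and residual ATP was measured by Kinase-Glo.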

In experiment [3] the target is T3, PI3K delta (Homo sapiens, UniProt O00329).
T3 construct: for the full-length p110-d subunit are generated and fused by overlapping PCR; His tag (C); made in house; host or cells: baculovirus BV1060; Tn5 (Trichoplusia ni) or TiniPro insect cells
Nature of the experiment: PI3K delta kinase assay (Kinase-Glo luminescence). In outline: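 IC50s derive from 8-point inhibition curves fitted to a 4-parameter logistic model. Reaction: 10 nM purified p110δ/p85 iSH2 fusion, 1 μM ATP, 10 μg/mL PI substrate, pH 7.5 Tris buffer with MgCl2, NaCl, CHAPS and DTT, run 60 min at room temperature; remaining ATP read by Kinase-Glo luminescence.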

Read-outs that look alike come from different tables or passages of the source.

T2 sequence (P42336 with tags, fused parts or gaps limits assumed): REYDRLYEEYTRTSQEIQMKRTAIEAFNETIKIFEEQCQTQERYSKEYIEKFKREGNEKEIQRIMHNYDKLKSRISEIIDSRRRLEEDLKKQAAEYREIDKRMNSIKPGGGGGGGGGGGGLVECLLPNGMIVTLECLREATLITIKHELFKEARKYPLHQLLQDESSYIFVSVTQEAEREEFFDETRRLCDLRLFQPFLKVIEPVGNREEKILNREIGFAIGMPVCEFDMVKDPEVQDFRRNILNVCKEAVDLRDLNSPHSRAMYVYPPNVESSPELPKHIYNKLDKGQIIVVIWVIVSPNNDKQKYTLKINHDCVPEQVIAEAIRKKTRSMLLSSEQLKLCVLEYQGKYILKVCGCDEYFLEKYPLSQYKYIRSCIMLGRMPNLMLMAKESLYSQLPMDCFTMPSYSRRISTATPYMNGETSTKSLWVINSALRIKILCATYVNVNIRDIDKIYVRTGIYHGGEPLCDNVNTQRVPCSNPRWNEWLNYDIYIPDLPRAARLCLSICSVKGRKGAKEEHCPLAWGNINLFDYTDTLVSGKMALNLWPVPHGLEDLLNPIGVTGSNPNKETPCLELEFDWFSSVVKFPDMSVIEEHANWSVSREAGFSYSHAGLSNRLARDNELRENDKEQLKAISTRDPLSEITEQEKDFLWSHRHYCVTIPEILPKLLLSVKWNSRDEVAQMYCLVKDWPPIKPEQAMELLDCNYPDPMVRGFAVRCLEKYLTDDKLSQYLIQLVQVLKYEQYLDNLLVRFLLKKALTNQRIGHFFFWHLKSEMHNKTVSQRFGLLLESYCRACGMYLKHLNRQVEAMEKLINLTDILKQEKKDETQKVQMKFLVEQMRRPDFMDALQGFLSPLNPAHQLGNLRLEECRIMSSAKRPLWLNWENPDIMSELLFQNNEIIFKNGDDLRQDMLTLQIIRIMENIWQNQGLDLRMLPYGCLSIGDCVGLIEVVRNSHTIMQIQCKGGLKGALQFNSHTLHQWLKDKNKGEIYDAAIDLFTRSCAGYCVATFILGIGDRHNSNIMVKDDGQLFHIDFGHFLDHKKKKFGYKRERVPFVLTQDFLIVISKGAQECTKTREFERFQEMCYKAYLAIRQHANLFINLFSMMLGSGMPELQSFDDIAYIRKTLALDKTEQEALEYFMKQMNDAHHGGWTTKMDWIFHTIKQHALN
T1 sequence (P42338 with tags, fused parts or gaps limits assumed): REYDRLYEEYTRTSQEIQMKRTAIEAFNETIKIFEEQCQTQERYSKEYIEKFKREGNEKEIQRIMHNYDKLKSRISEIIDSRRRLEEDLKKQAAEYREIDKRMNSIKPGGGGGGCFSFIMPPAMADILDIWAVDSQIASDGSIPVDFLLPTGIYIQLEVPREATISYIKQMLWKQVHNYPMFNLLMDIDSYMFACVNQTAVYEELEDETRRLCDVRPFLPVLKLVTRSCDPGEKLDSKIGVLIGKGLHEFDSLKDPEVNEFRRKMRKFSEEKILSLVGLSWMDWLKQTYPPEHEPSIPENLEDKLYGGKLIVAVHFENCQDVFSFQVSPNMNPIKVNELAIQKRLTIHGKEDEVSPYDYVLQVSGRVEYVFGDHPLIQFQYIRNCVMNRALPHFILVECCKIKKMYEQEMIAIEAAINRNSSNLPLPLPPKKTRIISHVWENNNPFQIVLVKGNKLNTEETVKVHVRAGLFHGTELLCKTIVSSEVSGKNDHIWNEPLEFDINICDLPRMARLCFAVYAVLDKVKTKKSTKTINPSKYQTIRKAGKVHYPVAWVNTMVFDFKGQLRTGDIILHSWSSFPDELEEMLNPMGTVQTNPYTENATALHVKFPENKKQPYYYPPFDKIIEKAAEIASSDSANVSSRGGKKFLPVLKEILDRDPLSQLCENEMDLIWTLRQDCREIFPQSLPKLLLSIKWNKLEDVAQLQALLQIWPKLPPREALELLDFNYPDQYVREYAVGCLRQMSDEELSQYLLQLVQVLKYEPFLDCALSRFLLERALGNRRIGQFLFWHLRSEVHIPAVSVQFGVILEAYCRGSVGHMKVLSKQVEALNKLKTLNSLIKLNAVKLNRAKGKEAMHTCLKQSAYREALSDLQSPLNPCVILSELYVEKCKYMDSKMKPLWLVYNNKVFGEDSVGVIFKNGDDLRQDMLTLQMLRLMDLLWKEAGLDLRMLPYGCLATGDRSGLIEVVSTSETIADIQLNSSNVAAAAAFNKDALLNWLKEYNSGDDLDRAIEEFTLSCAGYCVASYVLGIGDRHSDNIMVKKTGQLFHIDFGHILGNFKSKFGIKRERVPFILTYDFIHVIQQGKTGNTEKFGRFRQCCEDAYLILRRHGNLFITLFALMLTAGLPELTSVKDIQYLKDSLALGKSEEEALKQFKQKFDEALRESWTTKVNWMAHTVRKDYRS
T3 sequence (O00329 with tags, fused parts or gaps limits assumed): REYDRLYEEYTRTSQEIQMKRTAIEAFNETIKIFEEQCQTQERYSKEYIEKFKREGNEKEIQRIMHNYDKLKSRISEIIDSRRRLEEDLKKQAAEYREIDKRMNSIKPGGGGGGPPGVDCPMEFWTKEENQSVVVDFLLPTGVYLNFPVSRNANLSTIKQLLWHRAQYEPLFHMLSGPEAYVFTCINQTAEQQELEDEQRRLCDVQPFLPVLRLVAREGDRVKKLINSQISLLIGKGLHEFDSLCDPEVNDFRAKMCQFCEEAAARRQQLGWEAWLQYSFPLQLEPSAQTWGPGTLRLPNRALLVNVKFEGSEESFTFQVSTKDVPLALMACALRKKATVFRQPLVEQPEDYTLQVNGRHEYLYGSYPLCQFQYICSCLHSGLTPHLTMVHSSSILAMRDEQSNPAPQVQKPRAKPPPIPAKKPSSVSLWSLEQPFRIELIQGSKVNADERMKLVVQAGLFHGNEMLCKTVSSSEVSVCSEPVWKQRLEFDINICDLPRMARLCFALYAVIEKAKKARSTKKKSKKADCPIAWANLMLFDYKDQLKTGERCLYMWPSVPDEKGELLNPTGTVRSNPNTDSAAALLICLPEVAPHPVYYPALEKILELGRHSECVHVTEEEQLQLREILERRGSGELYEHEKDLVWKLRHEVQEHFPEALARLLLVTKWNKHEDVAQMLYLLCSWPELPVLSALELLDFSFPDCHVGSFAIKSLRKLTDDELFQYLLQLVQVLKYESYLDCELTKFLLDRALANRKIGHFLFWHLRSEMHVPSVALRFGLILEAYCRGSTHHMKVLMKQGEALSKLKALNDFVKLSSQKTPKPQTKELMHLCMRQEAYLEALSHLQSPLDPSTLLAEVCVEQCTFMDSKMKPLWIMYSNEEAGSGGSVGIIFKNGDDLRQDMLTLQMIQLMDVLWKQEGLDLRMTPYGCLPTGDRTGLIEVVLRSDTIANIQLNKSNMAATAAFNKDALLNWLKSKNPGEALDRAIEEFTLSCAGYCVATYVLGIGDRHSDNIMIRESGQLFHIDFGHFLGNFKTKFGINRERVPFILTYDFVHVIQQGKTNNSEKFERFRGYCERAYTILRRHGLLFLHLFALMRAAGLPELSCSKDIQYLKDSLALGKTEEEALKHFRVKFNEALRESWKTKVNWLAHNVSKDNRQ

For the compound `COc1ccc(-n2c(=O)n(C)c3cnc4ccc(-c5cnc(N)c(C(F)(F)F)c5)cc4c32)c(OC)n1` [Example 8.1, 8-(6-Amino-5-trifluoromethyl-pyridin-3-yl)-1-(2,6-dimethoxy-pyridin-3-yl)-3-methyl-1,3-dihydro-imidazo[4,5-c]quinolin-2-one], the IC50 is 23 nM in experiment [1] (read-out: PI3Kbeta/IC50), 11 nM in experiment [2] (read-out: PI3Kalfa/IC50) and 12 nM in experiment [3] (read-out: PI3Kdelta/IC50).

`COCCOc1cc(-c2ccc3ncc4c(c3c2)n(-c2ccc(OC)nc2OC)c(=O)n4C)cnc1C` [Example 8.9, 1-(2,6-Dimethoxy-pyridin-3-yl)-8-[5-(2-methoxy-ethoxy)-6-methyl-pyridin-3-yl]-3-methyl-1,3-dihydro-imidazo[4,5-c]quinolin-2-one]: the IC50 in experiment [1] (read-out: EPK_PI3Kbeta/IC50) is 43 nM; in experiment [2] (read-out: EPK_PI3Kalfa/IC50), 11 nM; in experiment [3] (read-out: EPK_PI3Kdelta/IC50) it was 14 nM.

With `COc1ccc(-n2c(=O)n(C)c3cnc4ccc(-c5ccc6nccn6c5)cc4c32)c(OC)n1` [Example 8.10, 1-(2,6-Dimethoxy-pyridin-3-yl)-8-imidazo[1,2-a]pyridin-6-yl-3-methyl-1,3-dihydro-imidazo[4,5-c]quinolin-2-one], the IC50 in experiment [1] (read-out: EPK_PI3Kbeta/IC50) was found to be 1340 nM; in experiment [2] (read-out: EPK_PI3Kalfa/IC50) it was 80 nM; in experiment [3] (read-out: EPK_PI3Kdelta/IC50) it was 192 nM.

Turning to `COCc1ncc(-c2ccc3ncc4c(c3c2)n(-c2ccc(OC)nc2OC)c(=O)n4C)cc1OC` [Example 8.12, 1-(2,6-Dimethoxy-pyridin-3-yl)-8-(5-methoxy-6-methoxymethyl-pyridin-3-yl)-3-methyl-1,3-dihydro-imidazo[4,5-c]quinolin-2-one], the IC50 turned out to be 212 nM in experiment [1] (read-out: EPK_PI3Kbeta/IC50), 41 nM in experiment [2] (read-out: EPK_PI3Kalfa/IC50) and 42 nM in experiment [3] (read-out: EPK_PI3Kdelta/IC50).

As to `COc1nc(N2CCNCC2)ccc1-n1c(=O)n(C)c2cnc3ccc(-c4cnc(N(C)C)nc4)cc3c21` [Example 9.4, 8-(2-Dimethylamino-pyrimidin-5-yl)-1-(2-methoxy-6-piperazin-1-yl-pyridin-3-yl)-3-methyl-1,3-dihydro-imidazo[4,5-c]quinolin-2-one], the results for the IC50 in experiment [1] (read-out: EPK_PI3Kbeta/IC50), in experiment [2] (read-out: EPK_PI3Kalfa/IC50) and in experiment [3] (read-out: EPK_PI3Kdelta/IC50) were 142 nM, 15 nM and 17 nM, respectively.

Consider `CCNc1cc(-c2ccc3ncc4c(c3c2)n(-c2ccc(OC)nc2C)c(=O)n4C)cnc1C` [Example 11.7, 8-(5-Ethylamino-6-methyl-pyridin-3-yl)-1-(6-methoxy-2-methyl-pyridin-3-yl)-3-methyl-1,3-dihydro-imidazo[4,5-c]quinolin-2-one], for which the IC50 is 6 nM in experiment [1] (read-out: EPK_PI3Kbeta/IC50), below 3 nM in experiment [2] (read-out: EPK_PI3Kalfa/IC50) and 3 nM in experiment [3] (read-out: EPK_PI3Kdelta/IC50).

Consider `COc1ccc(-n2c(=O)n(C)c3cnc4ccc(-c5cnc(CO)c(OC)c5)cc4c32)c(C)n1` [Example 11.8, 8-(6-Hydroxymethyl-5-methoxy-pyridin-3-yl)-1-(6-methoxy-2-methyl-pyridin-3-yl)-3-methyl-1,3-dihydro-imidazo[4,5-c]quinolin-2-one], for which the IC50 in experiment [1] (read-out: EPK_PI3Kbeta/IC50) was 2590 nM; in experiment [2] (read-out: EPK_PI3Kalfa/IC50), 16 nM; in experiment [3] (read-out: EPK_PI3Kdelta/IC50) it was below 3 nM.

As for `CCN(C)c1ccc(-n2c(=O)n(C)c3cnc4ccc(-c5ccc(NC)nc5)cc4c32)c(C)n1` [Example 12.1, 1-[6-(Ethyl-methyl-amino)-2-methyl-pyridin-3-yl]-3-methyl-8-(6-methylamino-pyridin-3-yl)-1,3-dihydro-imidazo[4,5-c]quinolin-2-one], the values for the IC50 in experiment [1] (read-out: EPK_PI3Kbeta/IC50), in experiment [2] (read-out: EPK_PI3Kalfa/IC50) and in experiment [3] (read-out: EPK_PI3Kdelta/IC50) were 154 nM, 36 nM and 15 nM, respectively.

Take `CCNc1cc(-c2ccc3ncc4c(c3c2)n(-c2ccc(N(C)CC)nc2C)c(=O)n4C)cnc1C` [Example 12.2, 8-(5-Ethylamino-6-methyl-pyridin-3-yl)-1-[6-(ethyl-methyl-amino)-2-methyl-pyridin-3-yl]-3-methyl-1,3-dihydro-imidazo[4,5-c]quinolin-2-one]: the IC50 in experiment [1] (read-out: EPK_PI3Kbeta/IC50) turned out to be 49 nM; in experiment [2] (read-out: EPK_PI3Kalfa/IC50), 15 nM; in experiment [3] (read-out: EPK_PI3Kdelta/IC50) it was 13 nM.

`CCOc1ccc(-c2ccc3ncc4c(c3c2)n(-c2ccc(OCCOC)nc2C)c(=O)n4C)cn1` [Example 13.1, 8-(6-Ethoxy-pyridin-3-yl)-1-[6-(2-methoxy-ethoxy)-2-methyl-pyridin-3-yl]-3-methyl-1,3-dihydro-imidazo[4,5-c]quinolin-2-one]: the IC50 in experiment [1] (read-out: EPK_PI3Kbeta/IC50) was 1950 nM; in experiment [2] (read-out: EPK_PI3Kalfa/IC50), 158 nM; in experiment [3] (read-out: EPK_PI3Kdelta/IC50) it was 742 nM.

Consider `COCCOc1ccc(-n2c(=O)n(C)c3cnc4ccc(-c5cnc(N)c(C(F)(F)F)c5)cc4c32)c(C)n1` [Example 13.2, 8-(6-Amino-5-trifluoromethyl-pyridin-3-yl)-1-[6-(2-methoxy-ethoxy)-2-methyl-pyridin-3-yl]-3-methyl-1,3-dihydro-imidazo[4,5-c]quinolin-2-one], for which the IC50 in experiment [1] (read-out: EPK_PI3Kbeta/IC50) is 20 nM; in experiment [2] (read-out: EPK_PI3Kalfa/IC50) it was 36 nM; in experiment [3] (read-out: EPK_PI3Kdelta/IC50), 14 nM.

With `CNc1ccc(-c2ccc3ncc4c(c3c2)n(-c2ccc(OCCOC)nc2C)c(=O)n4C)cn1` [Example 13.3, 1-[6-(2-Methoxy-ethoxy)-2-methyl-pyridin-3-yl]-3-methyl-8-(6-methylamino-pyridin-3-yl)-1,3-dihydro-imidazo[4,5-c]quinolin-2-one], the IC50 in experiment [1] (read-out: EPK_PI3Kbeta/IC50) is 502 nM; in experiment [2] (read-out: EPK_PI3Kalfa/IC50), 31 nM; in experiment [3] (read-out: EPK_PI3Kdelta/IC50) it was 26 nM.

For `CCNc1cc(-c2ccc3ncc4c(c3c2)n(-c2ccc(OCCOC)nc2C)c(=O)n4C)cnc1C` [Example 13.4, 8-(5-Ethylamino-6-methyl-pyridin-3-yl)-1-[6-(2-methoxy-ethoxy)-2-methyl-pyridin-3-yl]-3-methyl-1,3-dihydro-imidazo[4,5-c]quinolin-2-one], the IC50 in experiment [1] (read-out: EPK_PI3Kbeta/IC50) is 62 nM; in experiment [2] (read-out: EPK_PI3Kalfa/IC50), 13 nM; in experiment [3] (read-out: EPK_PI3Kdelta/IC50), 15 nM.

For the compound `CNc1ncc(-c2ccc3ncc4c(c3c2)n(-c2ccc(OCCOC)nc2C)c(=O)n4C)cn1` [Example 13.5, 1-[6-(2-Methoxy-ethoxy)-2-methyl-pyridin-3-yl]-3-methyl-8-(2-methylamino-pyrimidin-5-yl)-1,3-dihydro-imidazo[4,5-c]quinolin-2-one], the values for the IC50 in experiment [1] (read-out: EPK_PI3Kbeta/IC50), in experiment [2] (read-out: EPK_PI3Kalfa/IC50) and in experiment [3] (read-out: EPK_PI3Kdelta/IC50) were 658 nM, 43 nM and 60 nM, respectively.

With `CCOc1ccc(-c2ccc3ncc4c(c3c2)n(-c2ccc(C)nc2C)c(=O)n4C)cn1` [Example 14.2, 1-(2,6-Dimethyl-pyridin-3-yl)-8-(6-ethoxy-pyridin-3-yl)-3-methyl-1,3-dihydro-imidazo[4,5-c]quinolin-2-one], the IC50 in experiment [1] (read-out: EPK_PI3Kbeta/IC50) was 358 nM; in experiment [2] (read-out: EPK_PI3Kalfa/IC50) it was 43 nM; in experiment [3] (read-out: EPK_PI3Kdelta/IC50), 30 nM.

For `Cc1ccc(-n2c(=O)n(C)c3cnc4ccc(-c5cnc(N(C)C)nc5)cc4c32)c(C)n1` [Example 14.3, 8-(2-Dimethylamino-pyrimidin-5-yl)-1-(2,6-dimethyl-pyridin-3-yl)-3-methyl-1,3-dihydro-imidazo[4,5-c]quinolin-2-one], the results for the IC50 in experiment [1] (read-out: EPK_PI3Kbeta/IC50), in experiment [2] (read-out: EPK_PI3Kalfa/IC50) and in experiment [3] (read-out: EPK_PI3Kdelta/IC50) were 396 nM, 140 nM and 49 nM, respectively.

With `CNc1ncc(-c2ccc3ncc4c(c3c2)n(-c2ccc(C)nc2C)c(=O)n4C)cn1` [Example 14.4, 1-(2,6-Dimethyl-pyridin-3-yl)-3-methyl-8-(2-methylamino-pyrimidin-5-yl)-1,3-dihydro-imidazo[4,5-c]quinolin-2-one], the IC50 in experiment [1] (read-out: EPK_PI3Kbeta/IC50) stood at 282 nM; in experiment [2] (read-out: EPK_PI3Kalfa/IC50) it was 30 nM; in experiment [3] (read-out: EPK_PI3Kdelta/IC50), 44 nM.

For the compound `Cc1ccc(-n2c(=O)n(C)c3cnc4ccc(-c5cnc(N)c(C(F)(F)F)c5)cc4c32)c(C)n1` [Example 14.5, 8-(6-Amino-5-trifluoromethyl-pyridin-3-yl)-1-(2,6-dimethyl-pyridin-3-yl)-3-methyl-1,3-dihydro-imidazo[4,5-c]quinolin-2-one], the IC50 in experiment [1] (read-out: EPK_PI3Kbeta/IC50) was 9 nM; in experiment [2] (read-out: EPK_PI3Kalfa/IC50), 5 nM; in experiment [3] (read-out: EPK_PI3Kdelta/IC50) it was 7 nM.

As to `CCNc1cc(-c2ccc3ncc4c(c3c2)n(-c2ccc(C)nc2C)c(=O)n4C)cnc1C` [Example 14.6, 1-(2,6-Dimethyl-pyridin-3-yl)-8-(5-ethylamino-6-methyl-pyridin-3-yl)-3-methyl-1,3-dihydro-imidazo[4,5-c]quinolin-2-one], the figures for the IC50 in experiment [1] (read-out: EPK_PI3Kbeta/IC50), in experiment [2] (read-out: EPK_PI3Kalfa/IC50) and in experiment [3] (read-out: EPK_PI3Kdelta/IC50) were 50 nM, 19 nM and 20 nM, respectively.

As for `Cc1ccc(-n2c(=O)n(C)c3cnc4ccc(-c5cnc6c(ccn6C)c5)cc4c32)c(C)n1` [Example 14.7, 1-(2,6-Dimethyl-pyridin-3-yl)-3-methyl-8-(1-methyl-1H-pyrrolo[2,3-b]pyridin-5-yl)-1,3-dihydro-imidazo[4,5-c]quinolin-2-one], the figures for the IC50 in experiment [1] (read-out: EPK_PI3Kbeta/IC50), in experiment [2] (read-out: EPK_PI3Kalfa/IC50) and in experiment [3] (read-out: EPK_PI3Kdelta/IC50) were 1100 nM, 16 nM and 28 nM, respectively.

As for `Cc1ccc(-n2c(=O)n(C)c3cnc4ccc(-c5cncc(NC(C)C)c5)cc4c32)c(C)n1` [Example 14.8, 1-(2,6-Dimethyl-pyridin-3-yl)-8-(5-isopropylamino-pyridin-3-yl)-3-methyl-1,3-dihydro-imidazo[4,5-c]quinolin-2-one], the IC50 in experiment [1] (read-out: EPK_PI3Kbeta/IC50) is 53 nM; in experiment [2] (read-out: EPK_PI3Kalfa/IC50), 37 nM; in experiment [3] (read-out: EPK_PI3Kdelta/IC50) it was 46 nM.

Values taken from patent publication US20100311714A1, “1H-IMIDAZO[4,5-c]QUINOLINONE COMPOUNDS” (priority 2009, published 2010).
